Results taken from patent US20160318866A1, “SUBSTITUTED BIPIPERIDINYL DERIVATIVES” (Bayer Pharma Aktiengesellschaft, priority 2013, published 2016).
Where a name gives a salt, the structure may show the parent alone.

Each compound was assayed against T1, human α2C receptor (Homo sapiens, UniProt P18825) (assay: Antagonism against the adrenoreceptor α2C (luminescence, recombinant CHO cell line)). Conditions: antagonism against adrenoreceptor α2C; noradrenaline 20 nM; tested up to 10 μM; read-out: IC50.
T1 construct: expressed in transfected cells; host or cells: CHO cells, also recombinantly expressing chimeric G protein Gαqi3 and mitochondrial obelin (mtOb)
T1 sequence (P18825 1-462): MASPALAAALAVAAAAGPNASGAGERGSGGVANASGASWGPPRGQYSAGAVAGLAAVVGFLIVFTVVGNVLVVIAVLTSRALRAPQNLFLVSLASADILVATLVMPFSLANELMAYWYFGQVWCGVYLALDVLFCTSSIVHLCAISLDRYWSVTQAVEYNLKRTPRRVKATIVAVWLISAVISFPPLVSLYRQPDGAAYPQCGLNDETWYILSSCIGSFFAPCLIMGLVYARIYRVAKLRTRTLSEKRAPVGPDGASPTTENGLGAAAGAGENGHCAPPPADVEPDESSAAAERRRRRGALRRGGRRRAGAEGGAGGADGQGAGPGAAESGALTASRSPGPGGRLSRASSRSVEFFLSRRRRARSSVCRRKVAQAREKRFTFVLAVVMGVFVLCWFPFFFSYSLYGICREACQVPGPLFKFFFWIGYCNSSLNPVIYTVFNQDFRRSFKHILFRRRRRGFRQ
Type: cell-based
Method: Antagonism against the adrenoreceptor α1A was tested using a recombinant human α1A receptor CHO cell line which additionally also recombinantly expresses mtAeq (mitochondrial aequorin). Antagonism against the adrenoreceptor α2A was tested using a recombinant human α2A-Gα16 receptor fusion protein CHO cell line (PerkinElmer Life Sciences) which additionally also recombinantly expresses mtAeq. Antagonism against the adrenoreceptor α2B was tested using a recombinant human α2B receptor CHO cell line (PerkinElmer Life Sciences) which additionally also recombinantly expresses mtAeq. Antagonism against the adrenoreceptor α2C was tested using a recombinant human α2C receptor CHO cell line which additionally also recombinantly expresses a chimaric G protein (Gαqi3) and mtOb (mitochondrial obelin).
The cells were cultivated at 37° C. and 5% CO2 in Dulbecco's modified Eagle's Medium/NUT mix F12 with L-glutamine which additionally contains 10% (v/v) inactivated foetal calf serum, 1 mM sodium pyruvate, 0.9 mM sodium bicarbonate, 50 U/ml penicillin, 50 μg/ml streptomycin, 2.5 μg/ml amphotericin B and 1 mg/ml Geneticin. The cells were passaged with enzyme-free Hank's-based cell dissociation buffer. All cell culture reagents used are from Invitrogen (Carlsbad, USA).
Luminescence measurements were carried out on white 384-well microtitre plates. 2000 cells/well were plated in a volume of 25 μl and cultivated for one day at 30° C. and 5% CO2 in cell culture medium with coelenterazine (α2A and α2B: 5 μg/ml; α1a/c and α2C: 2.5 μg/ml). Serial dilutions of the test substances (10 μl) were added to the cells. After 5 minutes, noradrenalinee was added to the cells (35 μl; final concentrations: 20 nM (α1a/c and α2C) or 200 nM (α2A and α2B)), and the emitted light was measured for 50 seconds using a CCD (charge-coupled device) camera (Hamamatsu Corporation, Shizuoka, Japan) in a light-tight box. The test substances were tested up to a maximum concentration of 10 μM. The IC50 values were calculated from the appropriate dose-response curves.
In the case of CC(C)(O)c1ccc(C(=O)N2CCC(N3CCCC(COC4CCC4)C3)CC2)cc1 (racemic) [Example 116, {3-[(Cyclobutyloxy)methyl]-1,4′-bipiperidin-1′-yl}[4-(2-hydroxypropan-2-yl)phenyl]methanone (racemate)], the IC50 is reported as 7 nM.
For C[C@@H]1CN(C2CCN(C(=O)c3ccc(C(C)(C)C)cc3)CC2)CC[C@@H]1C (relative stereo) [Example 20, cis-1-[1-(4-tert-Butylbenzoyl)piperidin-4-yl]-3,4-dimethylpiperidine trifluoroacetic acid salt], the IC50 was 117 nM.
In the case of CC1CCCN(C2CCN(C(=O)c3ccc(C(C)(C)C)cc3)CC2)C1 (single isomer, unassigned) [Example 6, (4-tert-Butylphenyl)(3-methyl-1,4′-bipiperidin-1′-yl)methanone, (−)-enantiomer], the IC50 is reported as 91 nM.
CCC1CCCN(C2CCN(C(=O)c3ccc(C(C)(C)O)cc3)CC2)C1 (single isomer, unassigned; enantiomer 1) [Example 115, [3-Ethyl-1,4′-bipiperidin-1′-yl][4-(2-hydroxypropan-2-yl)phenyl]methanone (enantiomer 1)] showed an IC50 of 22 nM.
With CC(C)(O)c1ccc(C(=O)N2CCC(N3CCCC(OCC4CC4)C3)CC2)cc1 (single isomer, unassigned; enantiomer 1) [Example 129, [3-(Cyclopropylmethoxy)-1,4′-bipiperidin-1′-yl][4-(2-hydroxypropan-2-yl)phenyl]methanone hydrochloride (enantiomer 1)] the IC50 was 16 nM.
Compound CC(C)(O)c1ccc(C(=O)N2CCC(N3CCCC(COC4CCC4)C3)CC2)cc1 (single isomer, unassigned; enantiomer 2) [Example 117, {3-[(Cyclobutyloxy)methyl]-1,4′-bipiperidin-1′-yl}[4-(2-hydroxypropan-2-yl)phenyl]methanone (enantiomer 2)] has an IC50 of 5 nM.
CCOC[C@@H]1CCCN(C2CCN(C(=O)c3ccc(C(C)(C)O)cc3)CC2)C1 (single isomer, unassigned; enantiomer 2) [Example 121, [3-(Ethoxymethyl)-1,4′-bipiperidin-1′-yl][4-(2-hydroxypropan-2-yl)phenyl]methanone (enantiomer 2)] gave an IC50 of 5 nM.
COCC1CCCN(C2CCN(C(=O)c3ccc(C(C)(C)O)cc3)CC2)C1 (single isomer, unassigned; enantiomer 2) [Example 123] was tested, and the IC50 was 7 nM.
Compound CCOC(=O)C1CCCN(C2CCN(C(=O)c3ccc(C(C)(C)C)cc3)CC2)C1 (centres unmarked) [Example 1, Ethyl 1′-[(4-tert-butylphenyl)carbonyl]-1,4′-bipiperidine-3-carboxylate] has an IC50 of 38 nM.
Compound CCOC(=O)c1ccc(C(=O)N2CCC(N3CCCC(C(=O)OCC)C3)CC2)cc1 (centres unmarked) [Example 2, 3-(Ethoxycarbonyl)-1-{1-[4-(ethoxycarbonyl)benzoyl]piperidin-4-yl}piperidine trifluoroacetic acid salt] has an IC50 of 120 nM.
CC1CCCN(C2CCN(C(=O)c3ccc(C(C)(C)C)c(Cl)c3)CC2)C1 (centres unmarked) [Example 3, (3-Chloro-4-tert-butylphenyl)(3-methyl-1,4′-bipiperidin-1′-yl)methanone trifluoroacetic acid salt] gave an IC50 of 268 nM.
CC1CCCN(C2CCN(C(=O)c3ccc(C(C)C)cc3)CC2)C1 (centres unmarked) [Example 4, (4-Isopropylphenyl)(3-methyl-1,4′-bipiperidin-1′-yl)methanone] showed an IC50 of 294 nM.
With CC1CCCN(C2CCN(C(=O)c3ccc(C(C)(C)C)cc3)CC2)C1 (centres unmarked) [Example 5, (4-tert-Butylphenyl)(3-methyl-1,4′-bipiperidin-1′-yl)methanone] the IC50 was 99 nM.
CC1CCCN(C2CCN(C(=O)c3ccc(C(C)(C)O)cc3)CC2)C1 (centres unmarked) [Example 7] was tested, and the IC50 was 538 nM.
Compound CCOC(=O)C1CCCN(C2CCN(C(=O)c3ccc(C(C)(C)O)cc3)CC2)C1 (centres unmarked) [Example 9, Ethyl 1′-[4-(2-hydroxypropan-2-yl)benzoyl]-1,4′-bipiperidine-3-carboxylate] has an IC50 of 44 nM.
COc1ccccc1OCc1ccc(C(=O)N2CCC(N3CCCC(C)C3)CC2)cc1 (centres unmarked) [Example 10, {4-[(2-Methoxyphenoxy)methyl]phenyl}[3-methyl-1,4′-bipiperidin-1′-yl]methanone] showed an IC50 of 96 nM.
For Cc1cc(C)n(Cc2ccc(C(=O)N3CCC(N4CCCC(C)C4)CC3)cc2)n1 (centres unmarked) [Example 11, {4-[(3,5-Dimethyl-1H-pyrazol-1-yl)methyl]phenyl}(3-methyl-1,4′-bipiperidin-1′-yl)methanone], the IC50 was 167 nM.
For CC1CCCN(C2CCN(C(=O)c3ccc(C(C)(C)C)cc3O)CC2)C1 (centres unmarked) [Example 12, (2-Hydroxy-4-tert-butylphenyl)(3-methyl-1,4′-bipiperidin-1′-yl)methanone], the IC50 was 87 nM.
Work on CCOCc1ccc(C(=O)N2CCC(N3CCCC(C)C3)CC2)cc1 (centres unmarked) [Example 13, [4-(Ethoxymethyl)phenyl](3-methyl-1,4′-bipiperidin-1′-yl)methanone] yielded an IC50 of 267 nM.
CC1CCCN(C2CCN(C(=O)c3ccc(COc4ccccc4)cc3)CC2)C1 (centres unmarked) [Example 14, [4-(Phenoxymethyl)phenyl](3-methyl-1,4′-bipiperidin-1′-yl)methanone] gave an IC50 of 115 nM.
Compound COc1cc(C(C)(C)C)ccc1C(=O)N1CCC(N2CCCC(C)C2)CC1 (centres unmarked) [Example 15, (4-tert-Butyl-2-methoxyphenyl)(3-methyl-1,4′-bipiperidin-1′-yl)methanone] has an IC50 of 98 nM.
CC(C)(C)c1ccc(C(=O)N2CCC(N3CCCC(OC(=O)NC4CC4)C3)CC2)cc1 (centres unmarked) [Example 16, 1′-(4-tert-Butylbenzoyl)-1,4′-bipiperidin-3-yl cyclopropylcarbamate] gave an IC50 of 380 nM.
For CC1=C(C)CN(C2CCN(C(=O)c3ccc(C(C)(C)C)cc3)CC2)CC1 [Example 17, 1-[1-(4-tert-Butylbenzoyl)piperidin-4-yl]-4,5-dimethyl-1,2,3,6-tetrahydropyridine], the IC50 was 34 nM.
For Cc1nnc(C2CCCN(C3CCN(C(=O)c4ccc(C(C)(C)C)cc4)CC3)C2)o1 (centres unmarked) [Example 18, (4-tert-Butylphenyl) [3-(5-methyl-1,3,4-oxadiazol-2-yl)-1,4′-bipiperidin-1′-yl]methanone], the IC50 was 129 nM.
COCC1CCCN(C2CCN(C(=O)c3ccc(C(C)(C)C)cc3)CC2)C1 (centres unmarked) [Example 19, (4-tert-Butylphenyl)[3-(methoxymethyl)-1,4′-bipiperidin-1′-yl]methanone] was tested, and the IC50 was 8 nM.
In the case of Cc1n[nH]c(C2CCCN(C3CCN(C(=O)c4ccc(C(C)(C)C)cc4)CC3)C2)n1 (centres unmarked) [Example 21, 1-[1-(4-tert-Butylbenzoyl)piperidin-4-yl]-3-(3-methyl-1H-1,2,4-triazol-5-yl)piperidine trifluoroacetic acid salt], the IC50 is reported as 49 nM.
Work on COC(=O)c1ccc(C(=O)N2CCC(N3CCCC(C)C3)CC2)cc1 (centres unmarked) [Example 22, Methyl 4-[(3-methyl-1,4′-bipiperidin-1′-yl)carbonyl]benzoate] yielded an IC50 of 940 nM.
With CC1CCCN(C2CCN(C(=O)c3ccc(CC4(C)COC4)cc3)CC2)C1 (centres unmarked) [Example 23, (3-Methyl-1,4′-bipiperidin-1′-yl){4-[(3-methyloxetan-3-yl)methyl]phenyl}methanone] the IC50 was 136 nM.
CCOC(=O)C1CCCN(C2CCN(C(=O)c3ccc(CC4(C)COC4)cc3)CC2)C1 (centres unmarked) [Example 24, Ethyl 1′-{4-[(3-methyloxetan-3-yl)methyl]benzoyl}-1,4′-bipiperidine-3-carboxylate] showed an IC50 of 17 nM.
